According to patent US8961959B2, “Glucosylceramide synthase inhibitors and therapeutic methods using the same” (The Regents of the University of Michigan, priority 2011, dated 2015):
“Also recorded” adds a separate entry of the source.

Experiments:
[1] = drug distribution studies; cited from earlier work
[2] = target: T1, glucosylceramide synthase (GCS) (Canis lupus familiaris, UniProt A0A8I3MXG6); experiment: GCS activity, broken cell (MDCK cell homogenate) assay; assay type: biochemical, canine
T1 construct: Madin-Darby canine kidney (MDCK) cell homogenates (120 μg of protein) were incubated; endogenous in cells; host or cells: MDCK (Madin-Darby canine kidney) cell homogenate
T1 sequence (A0A8I3MXG6 1-394): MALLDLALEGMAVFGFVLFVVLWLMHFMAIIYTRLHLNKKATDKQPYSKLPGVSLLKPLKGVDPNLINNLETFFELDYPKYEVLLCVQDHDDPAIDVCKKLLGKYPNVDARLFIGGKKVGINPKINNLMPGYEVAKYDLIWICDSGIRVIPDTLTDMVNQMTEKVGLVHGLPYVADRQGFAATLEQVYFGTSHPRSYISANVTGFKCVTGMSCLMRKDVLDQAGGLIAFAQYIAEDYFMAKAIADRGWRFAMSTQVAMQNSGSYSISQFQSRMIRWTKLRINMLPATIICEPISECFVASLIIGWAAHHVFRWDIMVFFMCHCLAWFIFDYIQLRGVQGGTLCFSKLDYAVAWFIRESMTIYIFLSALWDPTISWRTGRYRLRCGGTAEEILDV
Protocol: Enzyme activity was measured as described previously (9). Madin-Darby canine kidney (MDCK) cell homogenates (120 μg of protein) were incubated with uridine diphosphate-[^3H]glucose (100,000 cpm) and liposomes consisting of 85 μg of octanoylsphingosine, 570 μg of dioleoylphosphatidylcholine, and 100 μg of sodium sulfatide in a 200 μL reaction mixture and kept for 1 h at 37° C.

[3] = test system: C57BL/6 mice; experiment: Organ GlcCer content in C57BL/6 mice after short term i.p. dosing; assay type: in vivo, mouse; conditions: for change in brain GlcCer levels: 10 mg/kg/day i.p. for 3 days, 12 h after last injection; for fall in brain GlcCer levels: 30 mg/kg q 12 h for 3 days i.p.; for liver and kidney GlcCer levels: i.p. 3 days; for brain GlcCer content, short term dosing: i.p. for 3 days, in words
Protocol: C57BL/6 mice were maintained on regular chow in specific-pathogen-free facilities. All animal studies were performed under the review of the University of Michigan Committee on the Use and Care of Animals and conformed to the National Institutes of Health Guide for the Care and Use of Laboratory Animals. Injection solutions were prepared from inhibitor-ethanol stock solution (100 mM) A portion of the stock solution was evaporated under a stream of N2 gas. Dried eliglustat tartrate (compound 3a) was directly dissolved into 1× phosphate buffered saline. […] The acidic solution was neutralized by mixing 100 μL of 10× phosphate buffered saline with 636.3 μL of water to bring the total volume to one ml. Inhibitor solutions were sterilized by passage through a […]. Inhibitor recovery after filtration was confirmed by UV spectrometry and exceeded 99%. For control injections, phosphate buffered saline containing the same amount of HCl was used. Inhibitors were given to 6 to 8 week old female or male C57BL/6 mice by intraperitoneal injection volume at 1% of body weight.
Lipid extractions of liver, kidney, and brain were performed as previously described (7). Briefly, frozen liver (about 0.5 g), two kidneys (about 0.3 g) and whole brain (about 0.4 g) were individually homogenized in sucrose buffer (250 mM sucrose, pH 7.4, 10 mM HEPES and 1 mM EDTA), at 0.2 g tissue/1 mL of sucrose buffer, with a Tri-R homogenizer. Each 0.8 mL of homogenate was mixed with 2 mL of methanol and 1 mL of chloroform, bath sonicated for 1 min and incubated at room temperature for 1 h. Tissue debris were removed by centrifugation at 2,400×gravity for 30 min. The pellets were re-extracted by mixing with 1 mL of methanol, 0.5 mL of chloroform and 0.4 mL of 0.9% NaCl (chloroform/methanol/0.9% NaCl, 1:2:0.8), incubated at room temperature for 1 h and centrifuged at 2,400×gravity for another 30 min. Two extracts were combined and mixed with 4.5 mL of chloroform and 1.2 mL of 0.9% NaCl (chloroform/methanol/0.9% NaCl, 2:1:0.8). After centrifugation at 800×gravity for 5 min, lower layer was washed with 3 mL of methanol and 2.4 mL of 0.9% NaCl. Second washing was carried with 3 mL of methanol, 2 mL of water and 0.4 mL of 0.9% NaCl followed by a 5 min centrifugation at 800×gravity. The resultant lower phase was collected and dried under a stream of N2 gas.
The analysis of neutral glycosphingolipids from mouse liver, kidney, and brain was processed after alkaline methanolysis. […] lipids were incubated with 2 mL of chloroform and 1 ml of 0.21N NaOH in methanol for 2 h (kidney) or 7.5 h (liver and brain) at RT. The lipid extract was normalized to 0.5 μmol of total phospholipid phosphate (liver and kidney) or 2 μmol of total phospholipid phosphate (brain) for high performance thin layer chromatography analysis. After alkaline methanolysis, the brain lipids were passed through a silica gel column (7). Borate-impregnated thin layer chromatography plates were developed in a two solvent system. Plates were first developed in chloroform/methanol (98:2, v/v). The plates loaded with kidney and liver lipids were then developed in chloroform/methanol/water (64:24:4, v/v/v), and brain lipids were further separated in chloroform/methanol/water (60:30:6, v/v/v). GlcCer levels were quantified by comparison to known standards.

Compound	transport across the blood brain barrier [1]	IC50 [2]	change in brain GlcCer levels [3]	fall in brain GlcCer levels [3]	liver and kidney GlcCer levels [3]	liver and kidney GlcCer levels ([3]; listed as eliglustat)	brain GlcCer content, short term dosing [3]	brain GlcCer content, short term dosing ([3]; listed as eliglustat tartrate)	inhibition of GCS ([2]; in words)
CCCCCCCC(=O)N[C@H](CN1CCCC1)[C@H](O)c1ccc2c(c1)OCCO2 [Compound 3a, N-((1R,2R)-1-(2,3-dihydrobenzo-[b][1,4]dioxin-6-yl)-1-hydroxy-3-(pyrrolidin-1-yl)propan-2-yl)octanamide, reference compound]	not transported across the blood brain barrier	149 nM	without changes	without any changes	significantly lowered	lowered	failed to demonstrate any change	an effect not seen	
O=C(CC1Cc2ccccc2C1)N[C@H](CN1CCCC1)[C@H](O)c1ccc2c(c1)OCCO2 [Compound 3h, 2-(2,3-dihydro-1H-inden-2-yl)-N-((1R,2R)-1-(2,3-dihydrobenzo[b][1,4]dioxin-6-yl)-1-hydroxy-3-(pyrrolidin-1-yl)propan-2-yl)acetamide]		27 nM	ten percent decrease	17%			significant dose dependent decrease; also recorded: significantly lowered		low nanomolar concentrations
